In ChEMBL document CHEMBL4020723, “Indoles as therapeutics of interest in medicinal chemistry: Bird's eye view” (Eur J Med Chem, 2017):
≈ marks a conversion by molar mass, not a printed value. Values belong to the molecule of their own block, whether it stands above or below them.

Columns and labels:
[1] = tested on: HeLa; assay: Cytotoxicity against human HeLa cells; type: functional, cell-based
[2] = tested on: Plasmodium falciparum; assay: Antimalarial activity against Plasmodium falciparum D6; type: functional
[3] = tested on: Staphylococcus aureus; assay: Antibacterial activity against Staphylococcus aureus; type: functional
[4] = tested on: Mycobacterium; assay: Antibacterial activity against Mycobacterium; type: functional
[5] = tested on: P388; assay: Cytotoxicity against mouse P388 cells; type: functional, cell-based
[6] = tested on: A549; assay: Cytotoxicity against human A549 cells; type: functional, cell-based
[7] = tested on: HCT-8; assay: Cytotoxicity against human HCT8 cells; type: functional, cell-based
[8] = Cytotoxicity against human MDA-MB cells; type: functional, cell-based
[9] = Inhibition of HDAC (unknown origin); design: species or system Homo sapiens
[10] = tested on: Plasmodium falciparum; assay: Antiplasmodial activity against chloroquine-resistant Plasmodium falciparum K1 after 24 hrs by liquid scintillation counting analysis; type: functional; conditions: K1, 24 h
[11] = tested on: Plasmodium falciparum; assay: Antiplasmodial activity against chloroquine-resistant Plasmodium falciparum W2 after 24 hrs by liquid scintillation counting analysis; type: functional; conditions: W2, 24 h
[12] = tested on: Rattus norvegicus; assay: Antiinflammatory activity in rat assessed as inhibition of carrageenan-induced paw edema at 50 mg/kg, po administered 1 hr prior to carrageenan challenge measured 4 hrs post dose; type: functional
[13] = tested on: Plasmodium falciparum; assay: Antiplasmodial activity against chloroquine-resistant Plasmodium falciparum W2 infected in human erythrocytes after 72 hrs by giemsa staining based microscopic analysis; type: functional, cell-based; conditions: W2, 72 h
[14] = tested on: KB; assay: Cytotoxicity against human KB cells; type: functional, cell-based
[15] = tested on: HT-29; assay: Cytotoxicity against human HT-29 cells; type: functional, cell-based
[16] = Cytotoxicity against human NSCLC-N6 cells; type: functional, cell-based
[17] = tested on: P388; assay: Cytotoxicity against mouse doxorubicin-resistant P388 cells; type: functional, cell-based
[18] = tested on: Human immunodeficiency virus 1; assay: Antiviral activity against HIV-1 assessed as inhibition of virus-induced syncytia formation; type: functional
[19] = tested on: Human alphaherpesvirus 1; assay: Antiviral activity against Herpes simplex virus type 1 by plaque reduction assay; type: functional; conditions: read-out: ID50 (the source's name)
[20] = tested on: Human alphaherpesvirus 2; assay: Antiviral activity against Herpes simplex virus type 2 by plaque reduction assay; type: functional; conditions: read-out: ID50 (the source's name)
[21] = target: Protein kinase C alpha type (Homo sapiens) (UniProt P17252); assay: Inhibition of PKCalpha (unknown origin)
[22] = target: Protein kinase C beta type (Homo sapiens) (UniProt P05771); assay: Inhibition of PKCbeta (unknown origin)
Chain of Protein kinase C beta type (Homo sapiens) (P05771 2-671 limits assumed): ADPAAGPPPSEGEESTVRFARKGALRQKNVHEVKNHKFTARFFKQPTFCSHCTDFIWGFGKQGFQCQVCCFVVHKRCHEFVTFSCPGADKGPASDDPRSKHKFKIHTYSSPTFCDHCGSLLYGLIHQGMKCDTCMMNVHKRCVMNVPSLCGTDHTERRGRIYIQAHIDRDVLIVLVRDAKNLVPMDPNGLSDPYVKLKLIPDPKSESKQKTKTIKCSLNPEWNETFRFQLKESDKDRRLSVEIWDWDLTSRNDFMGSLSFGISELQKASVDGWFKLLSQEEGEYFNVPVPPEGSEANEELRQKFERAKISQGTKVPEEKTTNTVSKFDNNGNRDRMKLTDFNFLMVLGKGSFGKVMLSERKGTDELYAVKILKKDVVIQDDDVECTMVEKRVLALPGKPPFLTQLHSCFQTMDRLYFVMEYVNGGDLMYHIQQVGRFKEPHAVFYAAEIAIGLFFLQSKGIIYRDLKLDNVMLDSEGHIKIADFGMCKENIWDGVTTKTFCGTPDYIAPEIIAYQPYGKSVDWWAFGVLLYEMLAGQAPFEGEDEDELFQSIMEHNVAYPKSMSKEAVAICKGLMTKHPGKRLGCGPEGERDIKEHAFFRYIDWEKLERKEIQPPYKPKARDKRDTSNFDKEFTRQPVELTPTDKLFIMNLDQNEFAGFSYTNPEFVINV

[23] = tested on: Staphylococcus haemolyticus; assay: Antibacterial activity against Staphylococcus haemolyticus; type: functional
[24] = tested on: Bacillus subtilis; assay: Antibacterial activity against Bacillus subtilis; type: functional
[25] = tested on: Enterococcus faecalis; assay: Antibacterial activity against Enterococcus faecalis; type: functional
[26] = tested on: Enterococcus faecium; assay: Antibacterial activity against Enterococcus faecium; type: functional
[27] = tested on: Streptococcus pyogenes; assay: Antibacterial activity against Streptococcus pyogenes; type: functional
[28] = tested on: HL-60; assay: Cytotoxicity against human HL60 cells assessed as reduction in cell viability after 72 hrs by MTT assay; type: functional, cell-based; conditions: HL-60, 72 h
[29] = tested on: K562; assay: Cytotoxicity against human K562 cells assessed as reduction in cell viability after 72 hrs by MTT assay; type: functional, cell-based; conditions: K562, 72 h
[30] = tested on: Helicobacter pylori; assay: Antibacterial activity against Helicobacter pylori; type: functional

SMILES: COC(=O)[C@@]1(C)Nc2c(O)cc3c(c2C1=O)[C@@H](CBr)CN3C(=O)c1cc2cc(OC)c(OC)c(OC)c2[nH]1
IC50 [1]: 0.001 to 1 nM

MIC [2]: 0.34 µg/mL (≈ 1.02 µM)
SMILES: CN1C(=N)N(C)/C(=C/c2c[nH]c3cc(Br)ccc23)C1=O

SMILES: COC(=O)[C@@]1(C)NC2=C(C1=O)[C@@]13C[C@H]1CN(C(=O)c1cc4cc(OC)c(OC)c(OC)c4[nH]1)C3=CC2=O
IC50 [1]: 0.001 to 1 nM

SMILES: O[C@]12C=C(c3nccc4c3[nH]c3ccccc34)[C@@H]3CCN(CCCC/C=C\CC1)C[C@@]31C[C@@H]3/C=C\CCCCN3[C@H]12 [MANZAMINE A]
MIC [2]: 4.5 µg/mL (≈ 8.2 µM)

MIC [3]: 8 to 64 µg/mL (≈ 36.3 to 291 µM)
MIC [4]: 2 to 32 µg/mL (≈ 9.08 to 145 µM)
SMILES: O=c1ccc2nccc3c4ccccc4n1c23 [CANTHIN-6-ONE]

SMILES: CN1C[C@H](c2c[nH]c3c(Br)c(Br)cc(O)c23)NC[C@H]1c1c[nH]c2cc(Br)ccc12
IC50 [5]: 15 µg/mL (≈ 25.7 µM)
IC50 [6]: 1 to 10 µg/mL (≈ 1.71 to 17.1 µM)
IC50 [7]: 1 to 10 µg/mL (≈ 1.71 to 17.1 µM)
IC50 [8]: 1 to 10 µg/mL (≈ 1.71 to 17.1 µM)

IC50 [9]: 32 nM
SMILES: O=C(/C=C/c1ccc(CN(CCO)CCc2c[nH]c3ccccc23)cc1)NO [DACINOSTAT]

SMILES: C[n+]1c2ccccc2cc2[n-]c3ccccc3c21 [CRYPTOLEPINE]
IC50 [10]: 0.027 to 0.063 µg/mL (≈ 0.116 to 0.271 µM)
IC50 [11]: 0.027 to 0.063 µg/mL (≈ 0.116 to 0.271 µM)

SMILES: COC(=O)[C@@]1(C)Nc2c(O)cc3c(c2C1=O)C[C@@H](Br)CN3C(=O)c1cc2cc(OC)c(OC)c(OC)c2[nH]1
IC50 [1]: 0.001 to 1 nM

SMILES: Cn1c2c3ccccc3nc-2c(O)c2ccccc21 [HYDROXYCRYPTOLEPINE]
IC50 [10]: 0.027 to 0.063 µg/mL (≈ 0.109 to 0.254 µM)
IC50 [11]: 0.027 to 0.063 µg/mL (≈ 0.109 to 0.254 µM)

SMILES: O=C(O)c1ccc(C(=O)N/N=C/c2c(-c3cccs3)[nH]c3ccccc23)cc1
inhibition in vivo at 50 mg/kg [12]: 55.3%

SMILES: C=C1c2[nH]c3ccccc3c2C2C(CC)C1CCN2C (stereo not drawn)
IC50 [13]: < 1 µg/mL

SMILES: NCCc1c(C(CN)c2c[nH]c3cc(Br)ccc23)[nH]c2cc(C(CN)c3c[nH]c4cc(Br)ccc34)c(O)cc12 (stereo not drawn) [GELLIUSINE A]
IC50 [5]: 10 to 20 µg/mL (≈ 15.4 to 30.7 µM)
IC50 [14]: 10 to 20 µg/mL (≈ 15.4 to 30.7 µM)
IC50 [15]: 10 to 20 µg/mL (≈ 15.4 to 30.7 µM)
IC50 [16]: 10 to 20 µg/mL (≈ 15.4 to 30.7 µM)
IC50 [17]: 10 to 20 µg/mL (≈ 15.4 to 30.7 µM)

EC50 [18]: 0.95 µg/mL (≈ 2.67 µM)
SMILES: COc1ccc2c(c1)N=CN1CCc3c([nH]c4ccccc34)C3=NCC[C@@]321

IC50 [19]: 1500 µg/mL (≈ 6110 µM)
IC50 [20]: 1500 µg/mL (≈ 6110 µM)
SMILES: CC(C)CC(=O)[C@@H](O)Cc1c[nH]c2ccccc12

MIC [2]: 11 µg/mL (≈ 19.5 µM)
SMILES: [O-][n+]1ccc2c([nH]c3ccccc32)c1C1=C[C@@]2(O)CC/C=C\CCCCN3CC[C@@H]1[C@]1(C[C@@H]4/C=C\CCCCN4[C@H]12)C3

MIC [3]: 8 to 64 µg/mL (≈ 33.9 to 271 µM)
MIC [4]: 2 to 32 µg/mL (≈ 8.47 to 135 µM)
SMILES: O=c1ccc2nccc3c4cccc(O)c4n1c23

INH [21]: 2.3 nM
INH [22]: 6.2 nM
SMILES: N#CCCn1c2ccccc2c2c3c(c4c5ccccc5[nH]c4c21)C(=O)NC3

MIC [3]: 4 to 32 µg/mL (≈ 7.43 to 59.5 µM)
MIC [24]: 4 to 32 µg/mL (≈ 7.43 to 59.5 µM)
MIC [25]: 4 to 32 µg/mL (≈ 7.43 to 59.5 µM)
MIC [26]: 4 to 32 µg/mL (≈ 7.43 to 59.5 µM)
MIC [27]: 4 to 32 µg/mL (≈ 7.43 to 59.5 µM)
SMILES: CN[C@@H](CC(C)C)C(=O)NCCc1c(Br)n(C)c2cc(Br)c(Br)cc12 [ALTEMATAMIDE A]
MIC [23]: 4 to 32 µg/mL (≈ 7.43 to 59.5 µM)

SMILES: CC(C)=CCc1cccc2c1N[C@@H]1N3C(=O)[C@H](Cc4c[nH]c5c(CC=C(C)C)cccc45)NC(=O)[C@@H]3C[C@]21O
IC50 [28]: 780 nM
IC50 [29]: 22400 nM

SMILES: C[n+]1c2ccccc2cc2[n-]c3ccccc3c21.Cl [CRYPTOLEPINE HYDROCHLORIDE]
IC50 [10]: 0.027 to 0.063 µg/mL
IC50 [11]: 0.027 to 0.063 µg/mL

MIC [2]: 6 µg/mL (≈ 10.6 µM)
SMILES: Oc1cccc2c1[nH]c1c(C3=C[C@@]4(O)CC/C=C\CCCCN5CC[C@@H]3[C@@]3(C[C@@H]6/C=C\CCCCN6[C@H]34)C5)nccc12

MIC [3]: 4 to 32 µg/mL (≈ 7.63 to 61.1 µM)
MIC [24]: 4 to 32 µg/mL (≈ 7.63 to 61.1 µM)
MIC [25]: 4 to 32 µg/mL (≈ 7.63 to 61.1 µM)
MIC [26]: 4 to 32 µg/mL (≈ 7.63 to 61.1 µM)
MIC [27]: 4 to 32 µg/mL (≈ 7.63 to 61.1 µM)
SMILES: CN[C@@H](CC(C)C)C(=O)NCCc1c(Br)[nH]c2cc(Br)c(Br)cc12 [ALTEMATAMIDE B]
MIC [23]: 4 to 32 µg/mL (≈ 7.63 to 61.1 µM)

MIC [3]: 4 to 32 µg/mL (≈ 8.98 to 71.9 µM)
MIC [24]: 4 to 32 µg/mL (≈ 8.98 to 71.9 µM)
MIC [25]: 4 to 32 µg/mL (≈ 8.98 to 71.9 µM)
MIC [26]: 4 to 32 µg/mL (≈ 8.98 to 71.9 µM)
MIC [27]: 4 to 32 µg/mL (≈ 8.98 to 71.9 µM)
SMILES: CN[C@@H](CC(C)C)C(=O)NCCc1c(Br)[nH]c2ccc(Br)cc12 [ALTEMATAMIDE C]
MIC [23]: 4 to 32 µg/mL (≈ 8.98 to 71.9 µM)

SMILES: Cn1c2nc3ccccc3c-2cc2ccccc21 [NEOCRYPTOLEPINE]
IC50 [10]: 0.027 to 0.063 µg/mL (≈ 0.116 to 0.271 µM)
IC50 [11]: 0.027 to 0.063 µg/mL (≈ 0.116 to 0.271 µM)

SMILES: CNC1=NC(=O)[C@H]([C@H](C)c2c[nH]c3ccccc23)O1 [INDOMYCIN]
MIC [3]: 0.5 µg/mL (≈ 1.94 µM)
MIC [30]: 0.016 µg/mL (≈ 0.0622 µM)
